Assay results taken from patent US5393748A, “Methylenebisphosphonic acid derivatives” (priority 1990, dated 1995).

What was measured:
[1] = test system: parathyroid hormone stimulated bone resorption in mouse calvaria; assay: Parathyroid hormone stimulated bone resorption inhibition in vitro in mouse calvaria; format: cell-based; details: 100 μm
Method: (§1) The parathyroid hormone stimulated bone resorption inhibition activity of the compounds in vitro in mouse calvaria, as well as the inhibition of retinoid induced bone resorption in thyroparathyroidectomised rats in vivo were determined (Reynolds & Dingle (Calc Tiss Res 1970; 4:339, and Trechsel et al. (J Clin Invest 1987; 80:1679)).

[2] = test system: retinoid induced bone resorption in thyroparathyroidectomised rats; assay: Inhibition of retinoid induced bone resorption in thyroparathyroidectomised rats in vivo; set-up: species or system rat; details: 150 μmole/kg
Method: as §1

SMILES	Inhibition of resorption (%), in vitro [1]	Inhibition of resorption (%), in vivo [2]
Cc1cccnc1NC(P(=O)(O)O)P(=O)(O)O [[[(3-methyl 2-pyridinyl)amino]methylidene]bisphosphonate, reference compound]	51%	
O=P(O)(O)C(Cl)(Cl)P(=O)(O)O [Clodronate, reference compound]		64%
CCOP(=O)(O)C(Nc1ncccc1C)P(=O)(O)OCC (stereo not shown) [[[(3-Methyl-2-pyridinyl)amino]methylidene) Bisphosphonic Acid P,P'-diethyl Ester]	43%	66%
CCOP(=O)(O)C(Nc1ccccn1)P(=O)(O)OCC (stereo not shown) [[[(2-Pyridinyl)amino]methylidene]bisphosphonic acid P,P'-diethyl ester]	33%	65%
O=P(O)(O)C(Nc1ccccn1)P(=O)(O)O [[[(2-pyridinyl)amino]methylidene]bisphosphonate, reference compound]	56%	> 100%
CC(C)OP(=O)(O)C(Sc1ccccn1)P(=O)(O)O (stereo not shown) [[[(2-Pyridinyl)thio]methylidene]bisphosphonic Acid Monoisopropyl Ester]	50%	87%
